Laboratory results: patent publication US11136312B2, “3,4,5-trisubstituted-1,2,4-triazoles and 3,4,5-trisubstituted-3-thio-1,2,4-triazoles and uses thereof” (Board of Trustees of Southern Illinois University, priority 2017, dated 2021)

What was measured:
Experiment in all cases: Competitive radioligand binding, 125I-Tyr-SRIF 14, membrane preparations
[1] = target: human somatostatin receptor SSTR2A (Homo sapiens (Human), UniProt P30874); details: competitive binding vs 125I-Tyr-SRIF 14, human SSTR2A membranes; read-out: SST2
human somatostatin receptor SSTR2A, sequence (P30874 whole entry): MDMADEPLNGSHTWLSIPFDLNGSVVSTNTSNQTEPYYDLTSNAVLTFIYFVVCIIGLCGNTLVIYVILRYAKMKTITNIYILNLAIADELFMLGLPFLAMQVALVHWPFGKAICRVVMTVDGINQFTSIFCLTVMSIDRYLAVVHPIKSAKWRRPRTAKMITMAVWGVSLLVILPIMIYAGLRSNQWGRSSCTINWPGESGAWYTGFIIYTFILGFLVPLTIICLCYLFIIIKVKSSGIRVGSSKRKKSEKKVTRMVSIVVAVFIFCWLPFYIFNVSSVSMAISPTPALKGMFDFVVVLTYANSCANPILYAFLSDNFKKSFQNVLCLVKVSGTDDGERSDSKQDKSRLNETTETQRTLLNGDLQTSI
Description: (§1) Respective membrane receptor preparations were prepared in assay buffer (25 mM HEPES, 10 mM MgCl2, 1 mM CaCl2, 0.5% BSA, pH=7.4) at a 1:150 dilution. […] Binding assays were performed in triplicate for each concentration of ligand in a total volume of 200 μL radioligand (25 μL ligand, 25 μL radioligand, 150 μL receptors) and incubated at room temperature for 90 minutes using a shaking table. Binding was terminated by filtration through GF/B glass fiber filters that were presoaked in 0.5% polyethyleneimine for a minimum of 4 hours. Filters were washed 9× with 1000 μL ice cold wash buffer (50 mM Tris-HCl, pH=7.4, 0.2% BSA). Filters were scored, transferred into plastic test tubes and counted in a gamma counter (Wizard2, Perkin-Elmer). Determination of the Ki for each compound was performed using non-linear regression with GraphPad PRISM-5 software (GraphPad Software, Inc., La Jolla, Calif.).

[2] = target: human somatostatin receptor SSTR3 (Homo sapiens (Human), UniProt P32745); details: competitive binding vs 125I-Tyr-SRIF 14, human SSTR3 membranes; read-out: SST3
Description: Competitive radioligand binding experiments were performed using MEMBRANE TARGET Systems (Perkin-Elmer, Boston, Mass.) for human somatostatin receptors: SSTR1 (ES-520-M400UA), SSTR2A (ES-521-M400UA), SSTR3 (ES523-M400UA), SSTR4 (ES-524-M400UA) and SSTR5 (ES-522-M400UA) receptors. (See Table 1). Respective membrane receptor preparations were prepared in assay buffer (25 mM HEPES, 10 mM MgCl2, 1 mM CaCl2, 0.5% BSA, pH=7.4) at a 1:150 dilution. Binding assays were performed using 1251-Tyr-SRIF 14 (Perkin-Elmer, NEX 3890) dissolved in 1 mM HCl. Binding assays were performed in triplicate for each concentration of ligand in a total volume of 200 μL radioligand (25 μL ligand, 25 μL radioligand, 150 μL receptors) and incubated at room temperature for 90 minutes using a shaking table. Binding was terminated by filtration through GF/B glass fiber filters that were presoaked in 0.5% polyethyleneimine for a minimum of 4 hours. Filters were washed 9× with 1000 μL ice cold wash buffer (50 mM Tris-HCl, pH=7.4, 0.2% BSA). Filters were scored, transferred into plastic test tubes and counted in a gamma counter (Wizard2, Perkin-Elmer). Determination of the Ki for each compound was performed using non-linear regression with GraphPad PRISM-5 software (GraphPad Software, Inc., La Jolla, Calif.).

[3] = target: human somatostatin receptor SSTR5 (Homo sapiens (Human), UniProt P35346); details: competitive binding vs 125I-Tyr-SRIF 14, human SSTR5 membranes; read-out: SST5
Description: as §1

[4] = target: human somatostatin receptor SSTR1 (Homo sapiens (Human), UniProt P30872); details: competitive binding vs 125I-Tyr-SRIF 14, human SSTR1 membranes; read-out: SST1
Description: as §1

SMILES | Ki [1] [µM] | Ki [2] [µM] | Ki [3] [µM] | Ki [4] [µM]
Clc1ccc(Cc2nnc(CCc3c[nH]c4ccccc34)n2CCCc2c[nH]cn2)cc1 [BN-VI-62, 3-(2-(4-(3-(1H-Imidazol-4-yl)propyl)-5-(4-chlorobenzyl)-4H-1,2,4-triazol-3-yl)ethyl)-1H-indole] | > 10 | – | – | –
COc1ccc(Cc2nnc(Cc3c[nH]c4ccc(OC)cc34)n2CCCc2c[nH]cn2)cc1 [SK-I-56, 3-((4-(3-(1H-imidazol-4-yl)propyl)-5-(4-methoxybenzyl)-4H-1,2,4-triazol-3-yl)methyl)-5-methoxy-1H-indole] | > 10 | > 10 | > 10 | 1.01
Cn1cc(CCc2nnc(Cc3ccc(Cl)c(Cl)c3)n2CCCc2c[nH]cn2)c2ccccc21 [SM-I-60, 3-(2-(4-(3-(1H-Imidazol-4-yl)propyl)-5-(3,4-dichlorobenzyl)-4H-1,2,4-triazol-3-yl)ethyl)-1-methyl-1H-indole] | > 10 | 6.99 | > 10 | 3.17
COc1ccc(Cc2nnc(Cc3c[nH]c4ccccc34)n2CCCc2c[nH]cn2)cc1 [SK-I-23, 3-((4-(3-(1H-imidazol-4-yl)propyl)-5-(4-methoxybenzyl)-4H-1,2,4-triazol-3-yl)methyl)-1H-indole] | > 10 | > 10 | > 10 | 2.58
O=[N+]([O-])c1cccc(Cc2nnc(CCc3c[nH]c4ccccc34)n2CCCc2c[nH]cn2)c1 [MM-I-43, 3-(2-(4-(3-(1H-Imidazol-4-yl)propyl)-5-(3-nitrobenzyl)-4H-1,2,4-triazol-3-yl)ethyl)-1H-indole] | > 10 | – | – | –
Fc1ccc(Cc2nnc(Cc3c[nH]c4ccccc34)n2CCCc2c[nH]cn2)cc1 [SK-I-16, 3-((4-(3-(1H-imidazol-4-yl)propyl)-5-(4-fluorobenzyl)-4H-1,2,4-triazol-3-yl)methyl)-1H-indole] | > 10 | – | – | –
c1ccc(COc2cccc(Cc3nnc(CCc4c[nH]c5ccccc45)n3CCCc3c[nH]cn3)c2)cc1 [MM-I-53, 3-(2-(4-(3-(1H-imidazol-4-yl)propyl)-5-(3-(benzyloxy)benzyl)-4H-1,2,4-triazol-3-yl)-ethyl)-1H-indole] | > 10 | – | – | –
COc1ccc(Cc2nnc(CCc3c[nH]c4ccccc34)n2CCCc2c[nH]cn2)cc1 [SM-I-29, 3-(2-(4-(3-(1H-Imidazol-4-yl)propyl)-5-(4-methoxybenzyl)-4H-1,2,4-triazol-3-yl)ethyl)-1H-indole] | > 10 | – | – | –
Fc1cc(F)cc(Cc2nnc(CCc3c[nH]c4ccccc34)n2CCCc2c[nH]cn2)c1 [SM-I-55, 3-(2-(4-(3-(1H-Imidazol-4-yl)propyl)-5-(3,5-difluorobenzyl)-4H-1,2,4-triazol-3-yl)ethyl)-1H-indole] | > 10 | > 10 | > 10 | > 10
COc1ccc2[nH]cc(Cc3nnc(Cc4ccccc4)n3CCCc3c[nH]cn3)c2c1 [SK-I-53, 3-((4-(3-(1H-imidazol-4-yl)propyl)-5-benzyl-4H-1,2,4-triazol-3-yl)methyl)-5-methoxy-1H-indole] | 7.1 | > 10 | > 10 | 1.72
Brc1cccc(Cc2nnc(CCc3c[nH]c4ccccc34)n2CCCc2c[nH]cn2)c1 [SM-I-50, 3-(2-(4-(3-(1H-Imidazol-4-yl)propyl)-5-(3-bromobenzyl)-4H-1,2,4-triazol-3-yl)ethyl)-1H-indole] | > 10 | > 10 | > 10 | 4.74
CS(=O)(=O)c1cccc(Cc2nnc(CCc3c[nH]c4ccccc34)n2CCCc2c[nH]cn2)c1 [SM-I-92, 3-(2-(4-(3-(1H-imidazol-4-yl)propyl)-5-(3-(methylsulfonyl)benzyl)-4H-1,2,4-triazol-3-yl)ethyl)-1H-indole] | > 10 | – | – | –
c1ccc(-c2ccc(Cc3nnc(CCc4c[nH]c5ccccc45)n3CCCc3c[nH]cn3)cc2)cc1 [MM-I-26, 3-(2-(4-(3-(1H-Imidazol-4-yl)propyl)-5-([1,1′-biphenyl]-4-ylmethyl)-4H-1,2,4-triazol-3-yl)ethyl)-1H-indole] | > 10 | – | – | –
FC(F)(F)Oc1cccc(Cc2nnc(CCc3c[nH]c4ccccc34)n2CCCc2c[nH]cn2)c1 [MM-I-36, 3-(2-(4-(3-(1H-imidazol-4-yl)propyl)-5-(3-(trifluoromethoxy)benzyl)-4H-1,2,4-triazol-3-yl)ethyl)-1H-indole] | > 10 | – | – | 4.08
Clc1ccc(Cc2nnc(Cc3c[nH]c4ccccc34)n2CCCc2c[nH]cn2)cc1 [SK-I-22, 3-((4-(3-(1H-imidazol-4-yl)propyl)-5-(4-chlorobenzyl)-4H-1,2,4-triazol-3-yl)methyl)-1H-indole] | 7.69 | – | – | –
N[C@H](Cc1c[nH]c2ccccc12)c1nnc(Cc2cccc(Cl)c2)n1CCCc1c[nH]cn1 [BN-VI-87, (R)-1-(4-(3-(1H-Imidazol-4-yl)propyl)-5-(3-chlorobenzyl)-4H-1,2,4-triazol-3-yl)-2-(1H-indol-3-yl)ethanamine] | > 10 | – | – | –
Fc1ccc2c(Cc3nnc(Cc4cccc(C(F)(F)F)c4)n3CCCc3c[nH]cn3)c[nH]c2c1 [MM-I-87, 3-((4-(3-(1H-imidazol-4-yl)propyl)-5-(3-(trifluoromethyl)benzyl)-4H-1,2,4-triazol-3-yl)methyl)-6-fluoro-1H-indole] | 3.28 | – | – | –
Clc1cc(Cl)cc(Cc2nnc(CCc3c[nH]c4ccccc34)n2CCCc2c[nH]cn2)c1 [BN-VI-89, 3-(2-(4-(3-(1H-Imidazol-4-yl)propyl)-5-(3,5-dichlorobenzyl)-4H-1,2,4-triazol-3-yl)ethyl)-1H-indole] | 6.98 | – | – | –
Cn1cc(CCc2nnc(Cc3cccc(C(F)(F)F)c3)n2CCCc2c[nH]cn2)c2ccccc21 [SM-I-76, 3-(2-(4-(3-(1H-imidazol-4-yl)propyl)-5-(3-(trifluoromethyl)benzyl)-4H-1,2,4-triazol-3-yl)ethyl)-1-methyl-1H-indole] | > 10 | – | – | –
Fc1ccc2c(Cc3nnc(Cc4ccccc4)n3CCCc3c[nH]cn3)c[nH]c2c1 [MM-I-89, 3-((4-(3-(1H-imidazol-4-yl)propyl)-5-benzyl-4H-1,2,4-triazol-3-yl)methyl)-6-fluoro-1H-indole] | > 10 | – | – | –
Fc1ccc2c(Cc3nnc(Cc4cccc(Br)c4)n3CCCc3c[nH]cn3)c[nH]c2c1 [MM-I-83, 3-((4-(3-(1H-imidazol-4-yl)propyl)-5-(3-bromobenzyl)-4H-1,2,4-triazol-3-yl)methyl)-6-fluoro-1H-indole] | 2.08 | – | – | –
N#Cc1cccc(Cc2nnc(CCc3c[nH]c4ccccc34)n2CCCc2c[nH]cn2)c1 [MM-I-63, 3-((4-(3-(1H-imidazol-4-yl)propyl)-5-(2-(1H-indol-3-yl)ethyl)-4H-1,2,4-triazol-3-yl)methyl)benzonitrile] | > 10 | – | – | –
CS(=O)(=O)c1cccc(Cc2nnc(Cc3c[nH]c4ccccc34)n2CCCc2c[nH]cn2)c1 [MM-I-72, 3-((4-(3-(1H-imidazol-4-yl)propyl)-5-(3-(methylsulfonyl)benzyl)-4H-1,2,4-triazol-3-yl)methyl)-1H-indole] | > 10 | – | – | 0.661
c1ccc(CSc2nnc(-c3c[nH]c4ccccc34)n2CCCc2c[nH]cn2)cc1 [AH-1-86, 3-(4-(3-(1H-imidazol-4-yl)propyl)-5-(benzylthio)-4H-1,2,4-triazol-3-yl)-1H-indole] | – | – | > 10 | > 10
